Source: paper PMC5797729, “Structure/Function Studies of the α4 Subunit Reveal Evolutionary Loss of a GlyR Subtype Involved in Startle and Escape Responses” (Frontiers in Molecular Neuroscience, 2018)

Experiments:
Mouse α4 GlyR = molecular target: T1, Mouse α4 GlyR (Mus musculus, UniProt Q61603); assay: whole-cell patch clamp, Hill fit; assay type: cell-based
T1 construct: gene Glra4; full-length wild-type cDNA from whole brain in pRK5, homomeric pentamer, HEK293 cells
T1 sequence (Q61603 28-456): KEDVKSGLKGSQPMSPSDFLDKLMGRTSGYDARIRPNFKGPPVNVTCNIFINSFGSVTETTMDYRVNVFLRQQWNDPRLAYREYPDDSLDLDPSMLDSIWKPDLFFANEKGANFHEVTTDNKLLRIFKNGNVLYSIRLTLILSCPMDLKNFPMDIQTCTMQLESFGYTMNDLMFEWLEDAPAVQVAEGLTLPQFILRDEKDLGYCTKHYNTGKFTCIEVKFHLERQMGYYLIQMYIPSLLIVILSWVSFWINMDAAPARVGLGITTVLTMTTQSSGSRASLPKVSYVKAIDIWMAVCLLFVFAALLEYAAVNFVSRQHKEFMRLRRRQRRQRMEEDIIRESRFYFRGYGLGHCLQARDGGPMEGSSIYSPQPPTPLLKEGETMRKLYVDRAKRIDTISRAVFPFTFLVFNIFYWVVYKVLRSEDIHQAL
Excerpt: whole-cell patch clamp, Hill fit on Mouse α4 GlyR

Human α4^K59E/C204Y + α1 = system: T2, Human α4^K59E/C204Y + α1; settings: agonist; -40 mV; pH 7.4; 22 °C
T2 construct: gene GLRA1
Excerpt: whole-cell patch clamp, Hill fit on Human α4^K59E/C204Y + α1

Gorilla α4 GlyR = molecular target: T3, Gorilla α4 GlyR (Gorilla gorilla, UniProt G3RDJ8); assay: whole-cell patch clamp, Hill fit; assay type: cell-based
T3 construct: gene GLRA4; full-length synthetic predicted cDNA in pRK5, homomeric pentamer, HEK293 cells
T3 sequence (G3RDJ8 29-457): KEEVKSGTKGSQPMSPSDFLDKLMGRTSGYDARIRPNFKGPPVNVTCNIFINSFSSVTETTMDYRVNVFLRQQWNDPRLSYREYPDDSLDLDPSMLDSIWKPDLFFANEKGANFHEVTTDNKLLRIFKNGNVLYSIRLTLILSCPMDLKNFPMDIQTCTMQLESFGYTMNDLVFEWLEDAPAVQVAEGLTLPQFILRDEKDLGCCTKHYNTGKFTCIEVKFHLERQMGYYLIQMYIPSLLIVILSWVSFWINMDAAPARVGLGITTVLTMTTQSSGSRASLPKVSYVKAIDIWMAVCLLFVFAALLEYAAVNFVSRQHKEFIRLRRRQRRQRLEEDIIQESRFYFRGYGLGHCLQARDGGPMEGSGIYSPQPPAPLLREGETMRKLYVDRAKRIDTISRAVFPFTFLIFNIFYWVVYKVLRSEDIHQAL
Excerpt: whole-cell patch clamp, Hill fit on Gorilla α4 GlyR

NCC(=O)O [glycine]
EC50 (Mouse α4 GlyR): 61 ± 10 µM | EC50 (Human α4^K59E/C204Y + α1): 350 ± 29 µM | EC50 (Gorilla α4 GlyR): 86 ± 16 µM
